Laboratory results published in patent US11208412B2 (DAEGU-GYEONGBUK MEDICAL INNOVATION FOUNDATION, priority 2017, dated 2021).

How the values were obtained:
Test in all cases: Kinase selectivity, DiscoverX scanMAX Kinase assay panel (% control)
Format in all cases: binding
[1] = biological target: T1, kinases of the scanMAX Kinase assay panel (Homo sapiens, UniProt P06241); settings: FYN; 1 uM
T1 construct: purchased DiscoverX Co. (contract measurement) scanMAX Kinase assay panel
Procedure, shortened: (§1)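 Single-point screen, 1 uM cpd in DMSO. % ctrl = (cpd − pos ctrl)/(neg ctrl − pos ctrl)×100; pos ctrl = 0%, DMSO neg ctrl = 100%. Hit cutoff <35%.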

[2] = biological target: T2, kinases of the scanMAX Kinase assay panel (Homo sapiens, UniProt O43293); settings: DAPK3; 1 uM
T2 construct: purchased DiscoverX Co. (contract measurement) scanMAX Kinase assay panel
Procedure, shortened: as §1

[3] = biological target: T3, kinases of the scanMAX Kinase assay panel (Homo sapiens, UniProt P15056); settings: BRAF; 1 uM
T3 construct: purchased DiscoverX Co. (contract measurement) scanMAX Kinase assay panel
Procedure, shortened: as §1

[4] = biological target: T4, kinases of the scanMAX Kinase assay panel (Homo sapiens, UniProt Q15746); settings: MYLK; 1 uM
T4 construct: purchased DiscoverX Co. (contract measurement) scanMAX Kinase assay panel
Procedure, shortened: as §1

[5] = biological target: T5, kinases of the scanMAX Kinase assay panel (Homo sapiens, UniProt Q16832); settings: DDR2; 1 uM
T5 construct: purchased DiscoverX Co. (contract measurement) scanMAX Kinase assay panel
T5 sequence (Q16832 22-855): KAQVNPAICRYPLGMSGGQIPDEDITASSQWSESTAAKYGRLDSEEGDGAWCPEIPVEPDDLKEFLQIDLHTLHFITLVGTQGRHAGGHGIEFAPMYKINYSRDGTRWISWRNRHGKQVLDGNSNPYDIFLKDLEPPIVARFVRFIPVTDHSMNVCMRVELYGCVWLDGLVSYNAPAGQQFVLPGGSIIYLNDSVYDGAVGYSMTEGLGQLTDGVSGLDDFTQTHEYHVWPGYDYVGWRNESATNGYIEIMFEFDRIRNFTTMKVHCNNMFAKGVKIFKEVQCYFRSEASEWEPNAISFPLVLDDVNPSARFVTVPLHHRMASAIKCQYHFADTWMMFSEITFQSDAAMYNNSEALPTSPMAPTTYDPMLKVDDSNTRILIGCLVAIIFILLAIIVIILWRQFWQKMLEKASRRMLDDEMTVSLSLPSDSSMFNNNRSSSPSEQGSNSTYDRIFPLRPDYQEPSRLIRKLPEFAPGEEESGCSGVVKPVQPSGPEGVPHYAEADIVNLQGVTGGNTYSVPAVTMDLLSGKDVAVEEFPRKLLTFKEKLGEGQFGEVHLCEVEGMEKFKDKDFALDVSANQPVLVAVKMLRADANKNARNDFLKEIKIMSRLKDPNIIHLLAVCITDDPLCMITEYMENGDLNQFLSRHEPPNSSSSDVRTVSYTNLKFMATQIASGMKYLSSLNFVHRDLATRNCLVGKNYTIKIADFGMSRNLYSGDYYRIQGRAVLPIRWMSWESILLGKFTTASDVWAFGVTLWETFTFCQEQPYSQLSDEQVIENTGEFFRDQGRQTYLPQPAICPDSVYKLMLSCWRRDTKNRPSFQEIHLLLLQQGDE
Procedure, shortened: as §1

[6] = biological target: T6, kinases of the scanMAX Kinase assay panel (Homo sapiens, UniProt Q9Y2I7); settings: PIKFYVE; 1 uM
T6 construct: purchased DiscoverX Co. (contract measurement) scanMAX Kinase assay panel
Procedure, shortened: as §1

[7] = biological target: T7, kinases of the scanMAX Kinase assay panel (Homo sapiens, UniProt Q9C098); settings: DCAMKL3; 1 uM
T7 construct: purchased DiscoverX Co. (contract measurement) scanMAX Kinase assay panel
Procedure, shortened: as §1

[8] = biological target: T8, kinases of the scanMAX Kinase assay panel (Homo sapiens, UniProt P36888, R834Q); settings: FLT3(R834Q); 1 uM
T8 construct: purchased DiscoverX Co. (contract measurement) scanMAX Kinase assay panel
T8 sequence (P36888 27-993 R834Q): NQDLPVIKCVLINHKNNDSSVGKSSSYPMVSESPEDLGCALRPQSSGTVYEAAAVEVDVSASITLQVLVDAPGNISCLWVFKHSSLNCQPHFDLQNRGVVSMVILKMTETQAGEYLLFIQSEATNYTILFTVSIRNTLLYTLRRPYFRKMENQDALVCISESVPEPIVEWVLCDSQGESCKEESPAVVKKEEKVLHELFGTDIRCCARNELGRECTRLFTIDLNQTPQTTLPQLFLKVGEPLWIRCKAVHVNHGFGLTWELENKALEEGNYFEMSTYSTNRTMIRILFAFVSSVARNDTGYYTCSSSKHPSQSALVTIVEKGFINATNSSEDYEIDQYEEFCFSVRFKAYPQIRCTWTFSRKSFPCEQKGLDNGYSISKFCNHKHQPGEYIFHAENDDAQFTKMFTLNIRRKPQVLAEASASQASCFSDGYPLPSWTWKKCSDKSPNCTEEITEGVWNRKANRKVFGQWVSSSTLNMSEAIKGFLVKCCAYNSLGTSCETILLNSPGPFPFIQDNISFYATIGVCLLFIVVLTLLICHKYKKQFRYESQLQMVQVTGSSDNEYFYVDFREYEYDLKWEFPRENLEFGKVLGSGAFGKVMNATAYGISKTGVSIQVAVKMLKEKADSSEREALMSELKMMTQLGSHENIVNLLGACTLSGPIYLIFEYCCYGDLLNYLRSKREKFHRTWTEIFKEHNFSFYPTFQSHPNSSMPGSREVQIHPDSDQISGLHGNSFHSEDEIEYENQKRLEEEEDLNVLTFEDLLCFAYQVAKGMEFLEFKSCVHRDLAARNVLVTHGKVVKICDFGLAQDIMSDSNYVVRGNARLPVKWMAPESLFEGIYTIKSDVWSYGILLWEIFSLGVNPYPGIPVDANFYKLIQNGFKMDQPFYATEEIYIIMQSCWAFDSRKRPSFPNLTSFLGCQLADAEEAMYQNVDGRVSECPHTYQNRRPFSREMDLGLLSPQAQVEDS
Procedure, shortened: as §1

[9] = biological target: T9, kinases of the scanMAX Kinase assay panel (Homo sapiens, UniProt Q14004); settings: CDC2L5; 1 uM
T9 construct: purchased DiscoverX Co. (contract measurement) scanMAX Kinase assay panel
Procedure, shortened: as §1

[10] = biological target: T10, kinases of the scanMAX Kinase assay panel (Homo sapiens, UniProt P08581, M1250T); settings: MET(M1250T); 1 uM
T10 construct: purchased DiscoverX Co. (contract measurement) scanMAX Kinase assay panel
Procedure, shortened: as §1

[11] = biological target: T11, kinases of the scanMAX Kinase assay panel (Homo sapiens, UniProt P36507); settings: MEK2; 1 uM
T11 construct: purchased DiscoverX Co. (contract measurement) scanMAX Kinase assay panel
Procedure, shortened: as §1

[12] = biological target: T12, kinases of the scanMAX Kinase assay panel (Homo sapiens, UniProt Q00526); settings: CDK3; 1 uM
T12 construct: purchased DiscoverX Co. (contract measurement) scanMAX Kinase assay panel
Procedure, shortened: as §1

T1 sequence (P06241 whole entry): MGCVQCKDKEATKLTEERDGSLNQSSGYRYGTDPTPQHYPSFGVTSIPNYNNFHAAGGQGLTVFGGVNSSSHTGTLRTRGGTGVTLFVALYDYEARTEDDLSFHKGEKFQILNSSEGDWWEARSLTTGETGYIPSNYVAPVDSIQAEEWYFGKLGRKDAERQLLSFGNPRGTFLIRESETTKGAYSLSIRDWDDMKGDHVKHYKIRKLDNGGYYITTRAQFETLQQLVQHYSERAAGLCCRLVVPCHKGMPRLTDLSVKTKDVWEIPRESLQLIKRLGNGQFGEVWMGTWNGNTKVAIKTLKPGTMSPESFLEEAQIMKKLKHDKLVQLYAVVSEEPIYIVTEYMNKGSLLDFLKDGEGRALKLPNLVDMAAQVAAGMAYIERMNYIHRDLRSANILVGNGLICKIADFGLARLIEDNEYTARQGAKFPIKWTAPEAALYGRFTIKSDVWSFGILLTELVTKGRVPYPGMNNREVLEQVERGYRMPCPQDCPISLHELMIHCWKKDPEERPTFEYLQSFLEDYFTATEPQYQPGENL
T7 sequence (Q9C098 whole entry): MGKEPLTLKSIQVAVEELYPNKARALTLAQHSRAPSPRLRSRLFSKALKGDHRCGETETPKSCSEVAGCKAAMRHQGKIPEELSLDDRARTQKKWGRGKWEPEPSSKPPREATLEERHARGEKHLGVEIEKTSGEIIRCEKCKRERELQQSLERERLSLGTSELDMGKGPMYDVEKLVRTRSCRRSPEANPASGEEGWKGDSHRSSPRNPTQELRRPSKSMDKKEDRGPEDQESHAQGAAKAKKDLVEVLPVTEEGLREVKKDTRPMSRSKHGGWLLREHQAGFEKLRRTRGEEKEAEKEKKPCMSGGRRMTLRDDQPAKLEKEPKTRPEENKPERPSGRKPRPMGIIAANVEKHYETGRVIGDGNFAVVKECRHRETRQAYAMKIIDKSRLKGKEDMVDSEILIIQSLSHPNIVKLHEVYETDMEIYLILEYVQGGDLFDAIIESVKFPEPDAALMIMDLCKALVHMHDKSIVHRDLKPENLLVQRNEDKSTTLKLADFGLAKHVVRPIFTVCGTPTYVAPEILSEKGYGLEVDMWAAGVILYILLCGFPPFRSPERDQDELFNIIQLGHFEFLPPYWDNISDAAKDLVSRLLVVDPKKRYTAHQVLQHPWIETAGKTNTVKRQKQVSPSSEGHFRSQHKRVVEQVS
T10 sequence (P08581 25-1390 M1250T): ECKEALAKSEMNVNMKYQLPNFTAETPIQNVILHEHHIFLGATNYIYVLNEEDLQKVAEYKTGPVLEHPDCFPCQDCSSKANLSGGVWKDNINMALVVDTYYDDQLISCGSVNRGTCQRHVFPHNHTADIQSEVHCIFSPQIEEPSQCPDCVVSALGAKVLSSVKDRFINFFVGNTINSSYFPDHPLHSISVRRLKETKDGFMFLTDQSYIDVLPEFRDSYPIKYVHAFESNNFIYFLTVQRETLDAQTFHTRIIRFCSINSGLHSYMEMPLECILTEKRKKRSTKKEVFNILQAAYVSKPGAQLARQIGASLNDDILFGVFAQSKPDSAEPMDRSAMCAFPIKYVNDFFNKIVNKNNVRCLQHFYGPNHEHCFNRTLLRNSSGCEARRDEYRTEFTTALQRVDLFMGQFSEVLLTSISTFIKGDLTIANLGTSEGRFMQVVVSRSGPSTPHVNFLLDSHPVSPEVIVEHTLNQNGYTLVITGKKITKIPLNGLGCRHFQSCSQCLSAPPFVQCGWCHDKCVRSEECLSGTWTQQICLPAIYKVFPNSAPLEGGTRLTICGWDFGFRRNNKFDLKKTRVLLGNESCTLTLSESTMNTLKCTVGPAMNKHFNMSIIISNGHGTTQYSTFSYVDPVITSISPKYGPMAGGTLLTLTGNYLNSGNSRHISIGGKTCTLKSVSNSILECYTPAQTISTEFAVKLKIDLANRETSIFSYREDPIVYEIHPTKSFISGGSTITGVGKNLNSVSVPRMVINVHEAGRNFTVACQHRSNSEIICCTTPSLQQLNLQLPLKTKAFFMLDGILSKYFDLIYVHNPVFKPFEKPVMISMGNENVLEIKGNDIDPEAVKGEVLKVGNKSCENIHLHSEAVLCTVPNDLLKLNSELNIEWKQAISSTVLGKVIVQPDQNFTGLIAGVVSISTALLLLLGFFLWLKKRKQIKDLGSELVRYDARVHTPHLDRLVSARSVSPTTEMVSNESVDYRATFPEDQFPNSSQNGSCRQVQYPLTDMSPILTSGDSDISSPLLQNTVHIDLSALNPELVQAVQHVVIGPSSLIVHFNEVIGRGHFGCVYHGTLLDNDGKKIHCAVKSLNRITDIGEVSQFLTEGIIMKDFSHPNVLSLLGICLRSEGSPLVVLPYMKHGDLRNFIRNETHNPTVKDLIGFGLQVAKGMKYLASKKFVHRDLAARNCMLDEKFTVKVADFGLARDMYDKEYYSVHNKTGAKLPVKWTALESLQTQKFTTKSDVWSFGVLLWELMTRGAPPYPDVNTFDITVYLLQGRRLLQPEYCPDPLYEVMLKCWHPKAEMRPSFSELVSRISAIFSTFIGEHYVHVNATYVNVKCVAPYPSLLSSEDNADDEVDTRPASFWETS
T9 sequence (Q14004 whole entry): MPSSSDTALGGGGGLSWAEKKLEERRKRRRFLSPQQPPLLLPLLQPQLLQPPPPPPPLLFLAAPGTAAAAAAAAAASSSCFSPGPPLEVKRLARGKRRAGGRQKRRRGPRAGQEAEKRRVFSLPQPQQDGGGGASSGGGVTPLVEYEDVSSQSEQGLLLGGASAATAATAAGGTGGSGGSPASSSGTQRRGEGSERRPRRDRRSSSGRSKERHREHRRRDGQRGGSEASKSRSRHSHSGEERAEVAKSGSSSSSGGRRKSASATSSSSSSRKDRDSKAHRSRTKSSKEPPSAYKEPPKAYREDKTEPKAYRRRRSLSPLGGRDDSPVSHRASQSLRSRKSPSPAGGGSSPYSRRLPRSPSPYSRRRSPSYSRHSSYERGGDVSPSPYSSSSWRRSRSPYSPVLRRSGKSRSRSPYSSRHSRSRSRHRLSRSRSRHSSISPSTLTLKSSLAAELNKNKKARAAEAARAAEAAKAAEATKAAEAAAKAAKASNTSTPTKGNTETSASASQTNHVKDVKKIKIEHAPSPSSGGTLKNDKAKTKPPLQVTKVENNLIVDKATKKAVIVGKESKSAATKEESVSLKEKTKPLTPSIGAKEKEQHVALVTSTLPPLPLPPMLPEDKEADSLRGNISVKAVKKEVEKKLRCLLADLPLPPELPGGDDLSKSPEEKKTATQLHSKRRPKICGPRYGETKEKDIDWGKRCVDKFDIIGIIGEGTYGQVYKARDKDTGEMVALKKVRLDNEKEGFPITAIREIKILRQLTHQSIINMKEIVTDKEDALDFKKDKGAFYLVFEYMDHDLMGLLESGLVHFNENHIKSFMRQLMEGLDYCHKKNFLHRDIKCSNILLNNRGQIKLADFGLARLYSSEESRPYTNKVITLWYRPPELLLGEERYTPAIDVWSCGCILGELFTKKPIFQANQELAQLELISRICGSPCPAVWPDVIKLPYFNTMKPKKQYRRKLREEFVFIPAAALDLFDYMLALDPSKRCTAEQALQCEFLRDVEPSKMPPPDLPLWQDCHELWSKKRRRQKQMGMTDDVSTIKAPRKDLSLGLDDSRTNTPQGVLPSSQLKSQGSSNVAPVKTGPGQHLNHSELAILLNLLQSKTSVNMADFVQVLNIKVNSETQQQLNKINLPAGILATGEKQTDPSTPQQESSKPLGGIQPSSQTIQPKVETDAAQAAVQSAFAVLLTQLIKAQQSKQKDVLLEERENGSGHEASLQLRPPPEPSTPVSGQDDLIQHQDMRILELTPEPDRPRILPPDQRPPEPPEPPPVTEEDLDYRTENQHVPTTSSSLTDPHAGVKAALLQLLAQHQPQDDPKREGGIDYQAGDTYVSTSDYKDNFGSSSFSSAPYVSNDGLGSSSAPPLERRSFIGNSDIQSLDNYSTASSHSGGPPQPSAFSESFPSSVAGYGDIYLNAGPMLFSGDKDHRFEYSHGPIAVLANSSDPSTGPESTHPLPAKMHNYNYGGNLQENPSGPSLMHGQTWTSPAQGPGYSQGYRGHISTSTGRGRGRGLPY
T3 sequence (P15056 whole entry): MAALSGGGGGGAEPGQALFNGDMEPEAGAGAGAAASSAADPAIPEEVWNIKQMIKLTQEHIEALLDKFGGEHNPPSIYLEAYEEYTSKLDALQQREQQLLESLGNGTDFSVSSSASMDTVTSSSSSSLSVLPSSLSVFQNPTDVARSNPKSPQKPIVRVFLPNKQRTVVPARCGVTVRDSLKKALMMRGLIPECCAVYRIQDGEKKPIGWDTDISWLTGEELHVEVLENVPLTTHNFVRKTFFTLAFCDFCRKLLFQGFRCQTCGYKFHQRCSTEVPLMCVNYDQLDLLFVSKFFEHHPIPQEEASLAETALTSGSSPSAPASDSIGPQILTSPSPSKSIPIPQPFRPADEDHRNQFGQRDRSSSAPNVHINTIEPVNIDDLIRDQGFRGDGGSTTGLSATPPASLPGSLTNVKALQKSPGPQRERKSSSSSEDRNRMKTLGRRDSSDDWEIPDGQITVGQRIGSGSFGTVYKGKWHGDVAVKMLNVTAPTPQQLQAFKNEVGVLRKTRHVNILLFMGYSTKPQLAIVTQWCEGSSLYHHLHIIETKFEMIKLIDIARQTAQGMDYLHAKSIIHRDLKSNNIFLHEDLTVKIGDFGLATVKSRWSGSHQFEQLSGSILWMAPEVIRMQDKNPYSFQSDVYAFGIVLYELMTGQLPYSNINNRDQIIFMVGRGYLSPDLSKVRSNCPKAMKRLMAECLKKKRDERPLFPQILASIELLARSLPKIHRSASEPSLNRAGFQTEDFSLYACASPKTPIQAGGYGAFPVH

| SMILES | remaining binding at 1 µM [1] | remaining binding at 1 µM [2] | remaining binding at 1 µM [3] | remaining binding at 1 µM [4] | remaining binding at 1 µM [5] | remaining binding at 1 µM [6] | remaining binding at 1 µM [7] | remaining binding at 1 µM [8] | remaining binding at 1 µM [9] | remaining binding at 1 µM [10] | remaining binding at 1 µM [11] | remaining binding at 1 µM [12] |
| --- | --- | --- | --- | --- | --- | --- | --- | --- | --- | --- | --- | --- |
| CNc1nc(Nc2ccc(C(=O)N3CCOCC3)cc2OC)nc2[nH]cc(C#N)c12 [Example 1, 2-((2-methoxy-4-(morpholine-4-carbonyl)phenyl)amino)-4-(methylamino)-7H-pyrrolo[2,3-d]pyrimidine-5-carbonitrile] | 100% | 12% | 69% | 0% | 96% | 73% | 98% | 65% | 82% | 100% | 93% | 100% |
| CC1(Nc2nc(Nc3cnn([C@H]4CCN(C5COC5)C[C@@H]4F)c3Cl)nc3[nH]cc(C#N)c23)CC1 [Example 52, 2-((5-chloro-1-((3S,4S)-3-fluoro-1-(oxetane-3-yl)piperidine-4-yl)-1H-pyrazole-4-yl)amino)((1-methylcyclopropyl)amino)-7H-pyrrolo[2,3-d]pyrimidine-5-carbonitrile] | 19% | 8.4% | 99% | 0.55% | 20% | 65% | 91% | 7.8% | 97% | 28% | 0.3% | 76% |
| CCNc1nc(Nc2ccc(C(=O)N3CCC(N4CCOCC4)CC3)cc2OC)nc2[nH]cc(C(F)(F)F)c12 [Example 104, (4-((4-(ethylamino)-5-(trifluoromethyl)-7H-pyrrolo[2,3-d]pyrimidine-2-yl)amino)-3-methoxyphenyl)(4-morpholinopiperidine-1-yl)methanone] | 100% | 56% | 100% | 0.95% | 100% | 100% | 90% | 100% | 100% | 100% | 83% | 93% |
